Consider 14 compounds from EP4741383A1, “COMPOUND AND USE THEREOF AS ANTI-CANCER DRUG” (Tyligand Bioscience (Shanghai) Limited, priority 2023, dated 2025).

Assay [1] deals with T1, FAP1 (Homo sapiens, UniProt Q12923).
T1 sequence (Q12923 2163-2477): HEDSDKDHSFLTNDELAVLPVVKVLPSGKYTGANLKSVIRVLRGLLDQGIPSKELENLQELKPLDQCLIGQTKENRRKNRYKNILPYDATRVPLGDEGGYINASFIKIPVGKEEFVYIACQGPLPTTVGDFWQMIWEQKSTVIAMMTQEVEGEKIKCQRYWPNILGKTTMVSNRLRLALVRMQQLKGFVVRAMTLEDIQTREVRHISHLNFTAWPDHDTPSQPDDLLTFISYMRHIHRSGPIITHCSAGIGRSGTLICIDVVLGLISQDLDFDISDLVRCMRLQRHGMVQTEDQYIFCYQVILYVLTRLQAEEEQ
The experiment in a line: Tyrosine phosphatase selectivity (pNPP substrate), FAP1. Type of assay: biochemical. Particulars: FAP1, pNPP substrate. The procedure:
(§1) This experiment evaluated the selectivity of the disclosed compounds against tyrosine phosphatases, including SHP1, HePTP, Laforin, LMWPTP, LYP, PTP1B, PRL2, SSU72, VHR, FAP1, STEP, CDC14A, CD45, MEG2, and PP5, all expressed and purified from E. coli.
(§2) Phosphatase activity was measured using p-nitrophenyl phosphate (pNPP) (Fisher Scientific) as the substrate in 50 mM 3,3-dimethylglutaric acid buffer (pH 7.0, containing 1 mM EDTA), with ionic strength adjusted to 0.15 M with NaCl. […] After 10-60 minutes, the reaction was quenched by adding 20 µL of 5 N NaOH. Wells without enzyme were used as controls for correction. The amount of the product, p-nitrophenol, was determined by measuring the absorbance at 405 nm using a Spectra MAX340 microplate spectrophotometer (Molecular Devices), with a molar extinction coefficient of 18000 M^-1cm^-1.
(§3) Data were analyzed using GraphPad Prism software. Dose-response curves were obtained by fitting data using the nonlinear S-curve regression Dose-response-inhibition equation, and IC50 values were calculated.

Assay [2] deals with FAP1. The description is as above. In kind it is biochemical. The settings on record: selectivity ratio FAP1 over SHP2. On the procedure: as §1, §2, §3
The test system of another assay is SK-BR-3. The experiment in a line: CellTiter-Glo cell proliferation inhibition, SK-BR-3. The settings on record: Homo sapiens; SK-BR-3 (breast cancer cell line), 72 hours; read-out: Example IC50 (µM) SK-BR-3. Type of assay: cell-based. The source says:
This experiment used the CellTiter-Glo® Luminescent Cell Viability Assay kit from Promega to evaluate the inhibitory activity of the disclosed compounds on the proliferation of the following cell lines: 4T1 (mouse breast cancer cell line), A20 (mouse B-cell lymphoma cell line), A2780 (human ovarian cancer cell line), AsPC-1 (pancreatic cancer cell line), B16F10 (mouse melanoma cell line), BT549 (human breast cancer cell line), CT26 (mouse colon cancer cell line), EMT6 (mouse breast cancer cell line), HCT116 (colorectal cancer cell line), Jurket (acute leukemia cell line), KP-4 (pancreatic cancer cell line), LL/2 (mouse lung cancer cell line), MCF7 (breast cancer cell line), […] NCI-H358 (lung cancer cell line), NCI-H727 (gastric cancer cell line), NCI-1944 (lung cancer cell line), Pan 04.03 (pancreatic cancer cell line), SK-BR-3 (breast cancer cell line), THP-1 (leukemia cell line), TOV21G (ovarian cancer cell line), U87MG (glioblastoma cell line), and UM-UC-a (bladder cancer cell line).
All cell lines were purchased from Nanjing Kebai Biotechnology Co., Ltd. The following materials were also used in the experiment: RPMI-1640 media (HyClone, catalog number #SH30022.01), McCoy's 5A media (Thermo Fisher, catalog number #16600-082), MCDB 105 media (Sigma, catalog number #117-500), Medium 199 (Thermo Fisher, catalog number #11150-059), MEM media (Thermo Fisher, catalog number #11095-080), DMEM media (HyClone, catalog number #SH30027.01), fetal bovine serum (FBS) (ExCell, catalog number # M4530), Sodium Pyruvate (100Mm) (Thermo Fisher, catalog number #11360-070), and MEM NEAA (100X) (Thermo Fisher). […]
Cells were cultured according to the instructions provided by the cell supplier (Nanjing Kebai Biotechnology Co., Ltd.). […] Suspension or adherent cells were collected, and cell viability was determined using the trypan blue exclusion method, ensuring that cell viability was above 90%. […]

As for `O=C(Nc1ccc(-c2oc3cc(F)c(-c4nnn[nH]4)cc3c2C2CCC2)cc1)C(=O)Nc1ccc(N2CCC3(CCOC3)CC2)cc1` [Example 125], the midpoint of inhibition against FAP1 [1], the IC50, lay at 7.44 µM. On FAP1 [2], the “IC50PTP/IC50SHP2 FAP1” value stood at 145.9. `O=C(Nc1ccc(-c2cc3cc(F)c(-c4nnn[nH]4)cc3n2C2CCC2)cc1)C(=O)Nc1ccc(N2CCOCC2)cc1` [Example 47]: at FAP1 [1], the midpoint of inhibition, the IC50, lay at 1.53 µM. The “IC50PTP/IC50SHP2 FAP1” value at FAP1 [2] came to 24.2. Compound `O=C(Nc1ccc(-c2ccsc2)cc1)C(=O)Nc1ccc(-c2cc3cc(F)c(-c4nnn[nH]4)nc3n2C2CCC2)cc1` [Example 132] registered an IC50 against FAP1 [1] of 13.5 µM. Moreover, the “IC50PTP/IC50SHP2 FAP1” value at FAP1 [2] is reported as 500. On the same counts, the results for `Cn1cc(-c2ccc(NC(=O)C(=O)Nc3ccc(-c4cc5cc(F)c(-c6nnc(C(F)(F)F)[nH]6)cc5n4C4CCC4)cc3)cc2)cn1` [Example 124] are over 100 µM and 139.7.

On FAP1 [1], `O=C(Nc1ccc(-c2cc3cc(F)c(-c4nnn[nH]4)cc3n2C2CCC2)cc1)C(=O)Nc1ccc(N2CC3COCC3C2)cc1` (stereo not drawn) [Example 114] returned an IC50 of 1.9 µM. Besides, on FAP1 [2], the “IC50PTP/IC50SHP2 FAP1” value was 26.3. On the same counts, the results for `O=C(Nc1ccc(-c2cc3cc(F)c(-c4nnn[nH]4)cc3n2C2CCC2)cc1)C(=O)Nc1ccc(N2CCC3(CCOC3)CC2)cc1` [Example 67] are 2.34 µM and 68.8. As for `O=C(Nc1ccc(-c2ccsc2)cc1)C(=O)Nc1ccc(-c2cc3ccc(-c4nnn[nH]4)nc3n2C2CCC2)cc1` [Example 129], half-maximal inhibition at FAP1 [1] (IC50) required 4.2 µM. For the same compound, the “IC50PTP/IC50SHP2 FAP1” value at FAP1 [2] turned out to be 71.2. Turning to `O=C(Nc1ccc(-c2cc3cc(F)c(-c4nnn[nH]4)cc3n2C2CCC2)cc1)C(=O)Nc1ccc(N2CCC3(CCC(O)C3)CC2)cc1` (stereo not drawn) [Example 100], the 50% inhibitory concentration (IC50) in the assay on SK-BR-3 worked out at 0.044 µM. The compound `O=C(Nc1ccc(-c2ccsc2)cc1)C(=O)Nc1ccc(-c2cc3cnc(-c4nnn[nH]4)nc3n2C2CCC2)cc1` [Example 131] gave an IC50 on FAP1 [1] of 11 µM. Further, the “IC50PTP/IC50SHP2 FAP1” value on FAP1 [2] worked out at 423.1. Take `O=C(Nc1ccc(-c2csc(CO)c2)cc1)C(=O)Nc1ccc(-c2cc3cc(F)c(-c4nnn[nH]4)cc3n2C2CCC2)cc1` [Example 1]: the IC50 with SK-BR-3 is 0.14 µM. With `Cn1cc(-c2ccc(NC(=O)C(=O)Nc3ccc(-c4cc5cc(F)c(-c6noc(=O)[nH]6)cc5n4C4CCC4)cc3)cc2)cn1` [Example 123], the IC50 at FAP1 [1] came out at 7.3 µM. Also, the “IC50PTP/IC50SHP2 FAP1” value on FAP1 [2] was found to be 51.8.

At FAP1 [1], `O=C(Nc1ccc(-c2ccsc2)cc1)C(=O)Nc1ccc(-c2cc3cc(F)c(-c4nnn[nH]4)cc3n2C2CCC2)cc1` [Example 4] yielded a concentration for half-maximal inhibition (IC50) of 19.5 µM. Also, the “IC50PTP/IC50SHP2 FAP1” value on FAP1 [2] is 672.4. As for `CC1(n2c(-c3ccc(NC(=O)C(=O)Nc4ccc(N5CCC6(CCOC6)CC5)cc4)cc3)cc3cc(F)c(-c4nnn[nH]4)cc32)CCC1` [Example 68], the IC50 was determined as 0.057 µM in the assay with SK-BR-3 and 0.56 µM against FAP1 [1]. At FAP1 [2], the “IC50PTP/IC50SHP2 FAP1” value amounted to 11.7. Turning to `O=C(Nc1ccc(-c2ccsc2)cc1)C(=O)Nc1ccc(-c2oc3cc(F)c(-c4nnn[nH]4)cc3c2C2CCC2)cc1` [Example 130], the concentration for half-maximal inhibition (IC50) against FAP1 [1] was under 3 µM. Also, the “IC50PTP/IC50SHP2 FAP1” value on FAP1 [2] was 120.
